Test results reported in patent US10351847B2, “Identification and display of peptide ligands” (OXFORD UNIVERSITY INNOVATION LIMITED, priority 2013, dated 2019).
“Also recorded” adds a separate entry of the source. Where two headings read alike, the source gives them in different places. Ends that are not written are not given here. GS linker = not defined here

Tests used:
[1] = system: HIV-1 JRFL gp120; experiment: ELISA for binding between predicted peptides and gp120; conditions: compared to negative control HA2 (hemagglutinin-binding peptide)
[2] = system: HIV-1 (HIV BAL, IIIB, clade C)
[3] = system: JRFL gp120 / recombinant CCR5; assay type: binding, HIV-1; conditions: 125 ng peptide
[4] = system: HIV-1 BaL; experiment: HIV-1 inhibition assay (intracellular p24 in CD4+ cells of PBMC); conditions: for inhibition of HIV-1 BaL infection: without streptavidin conjugation
[5] = system: HIV-1 IIIB; experiment: as above; assay type: cell-based; conditions: CXCR4 tropic virus
[6] = system: gp120
Protocol: ELISA plate (Greiner, 655061) was coated with 1 μg/ml purified gp120 in PBS and incubated at 4° C. overnight. The plate was washed with ELISA wash buffer (PBS, 0.05% Tween20, VWR) followed by 100 μl blocking buffer (PBS, 0.05% Tween20, 2% BSA powder, Sigma) for 1 hr at room temperature. For antibody blocking experiment, V3/VRC01/F105 antibodies (NIBSC, CFAR3219/3291/3115) were used in 1 μg/ml for 1 hr at room temperature. After blocking, the plates were washed and peptides were added at different concentrations and incubate for 1 hr at room temperature. After washes, the detection of the binding was done by the addition of streptavidin conjugated peroxidase (Sigma, at 1:2500 dilution in PBS for 1 hr at room temperature and developed by TMB substrate (Thermo, 8008743723). After colour change was observed, stop buffer (0.16 M sulphuric acid, Sigma) was added to stop the reaction, and the absorbance was read at OD450 with ELISA plate reader.

[7] = system: purified gp120; experiment: Surface plasmon resonance (BIAcore) KD of peptides to gp120; assay type: binding, HIV-1
Protocol: Immobilisation of purified gp120 protein (1 mg/ml) and purified HLA-A2 heavy chain (reference control, 1 mg/ml) onto the surface of individual flow-cells (Fc1 and Fc2 respectively) of CM5 sensor chip (GE Healthcare) was performed under conditions of 20 μl/min flow rate and 25° C., with HBS-EP buffer (0.01 M HEPES pH 7.4, 0.15 M NaCl, 0.005% v/v Surfactant P20; GE Healthcare) as the running buffer. After initiating the system, 100 μl 0.05M solution of EDC [1-ethyl-3-(3-dimethylaminopropyl) carbodiimide]/NHS (N-Hydroxysuccinimide) at 1:1 ratio was injected to activate the dextran matrix of the sensor chip surface. After immobilisation, 150 μl of 1M ethanolamine hydrochloride was injected to deactivate the unreacted carboxylmethyl groups on the dextran matrix. Finally, 30 μl of Glycine pH2.5 was injected to remove any non-covalently bound proteins.
The affinity analyses of the interaction between 9-amino-acid predicted peptides and purified gp120 were performed using the BIAcore T200 (GE Healthcare), under conditions of 10 μl/min flow rate and 25° C. and using HBS-EP buffer (0.01 M HEPES pH 7.4, 0.15 M NaCl, 0.005% v/v Surfactant P20; GE Healthcare) as the running buffer. Prior to experiment, the 9-amino-acid peptides were diluted to 1 mg/ml with HBS-EP buffer. A 2-fold serial dilution of totally 8 concentrations was used to pass through the […]. The data were analysed using Microcal Origin version 7.5 (Microcal Software Limited).
In order to obtain quantitative measurements of binding reactions between predicted peptides and gp120, surface plasmon resonance (BIAcore) was used to measure the equilibrium dissociation constant KD of the predicted peptides and gp120. […] Since the KD to gp120 is relative to different analytes, purified protein HLA-A*0201 heavy chain was used as a reference control to measure the relative binding affinity of peptides to gp120. Purified gp120 and HLA-A*0201 were immobilised on chips, and the peptides were passed through both flow cells at a constant rate of 10 μl/min. […] The BIcore experiment acted as a second confirmation that the randomised peptide library had successfully captured peptides which bind to gp120 in a single round of selection, and that the sequence information coding the binding peptides was correctly preserved and sequenced.

Compound	binding to gp120 on ELISA (absorbance) [1]	HIV-1 inhibition (in words) [2]	cross clade HIV-1 inhibitory activity [2]	affinity to gp120 (ranking) [7]	also measured
RRRNVPLIL (RRRNVPLIL-{GS linker-K(biotin)}; reading uncertain) [GP2]	significantly higher binding; also recorded: higher absorbance				
enfuvirtide					viral inhibition ([2]; positive control, 50 μM): 91.1%
SYSFCPRRQ (also: GS linker and biotinylated lysine, end not given here) [GP3]	significantly higher binding; also recorded: higher absorbance	greatest inhibition	exhibited cross clade HIV-1 inhibitory activity	highest affinity	reduction in absorbance (recombinant CCR5 binding to gp120) [3]: 65.8%; inhibition of HIV-1 BaL infection ([4]; 50 μM): no inhibitory effect; inhibition of HIV-1 BaL infection ([4]; 100 μM): 34.5%; inhibition of HIV-1 BaL infection ([4]; 250 μM): 54.7%; inhibition of replication ([4]; CCR5 tropic virus): exhibited inhibition; inhibition of replication [5]: no inhibition; reduction in absorbance of peptide binding to gp120 ([6]; gp120 pre-blocked with V3 antibody): significant reduction
SSCSVRSSCRLYYSC [GP21]	did not show any binding	did not show any HIV-1 inhibition			
LLALSAYMV [GP11]	significantly higher binding; also recorded: higher absorbance		exhibited cross clade HIV-1 inhibitory activity	highest affinity	
LVLLSSASS [GP5]				highest affinity	
CC(C)C[C@H](NC(=O)[C@H](CC(C)C)NC(=O)[C@H](CC(N)=O)NC(=O)[C@H](CC(C)C)NC(=O)[C@H](CCCNC(=N)N)NC(=O)[C@H](CCCNC(=N)N)NC(=O)[C@H](CS)NC(=O)[C@H](Cc1c[nH]c2ccccc12)NC(=O)[C@@H](N)CC(C)C)C(=O)NCC(=O)NCC(=O)NCC(=O)NCC(=O)NCC(=O)NCC(=O)N[C@@H](CO)C(=O)NCC(=O)NCC(=O)N[C@@H](CO)C(=O)NCC(=O)N[C@@H](CCCCNC(=O)CCCC[C@@H]1SC[C@@H]2NC(=O)N[C@@H]21)C(=O)O [GP16]	significantly higher binding; also recorded: higher absorbance; also recorded: highest binding affinity	greatest inhibition	exhibited cross clade HIV-1 inhibitory activity	highest affinity	inhibition of HIV-1 BaL infection ([4]; 50 μM): less than 1%; inhibition of HIV-1 BaL infection ([4]; 100 μM): less than 1%; inhibition of HIV-1 BaL infection ([4]; 250 μM): 50%; reduction in absorbance of peptide binding to gp120 ([6]; gp120 blocked with any of the three antibodies (V3, VRC01, F105)): no reduction
